Where “and” joins values, the source holds several entries; their conditions need not be identical. Equal entries are not always repeated. Where two headings read alike, the source gives them in different places.

The assay relates to C. elegans.
Where [1] appears, read: Table S2, C. elegans SS assay, 110 μM, 0 h, averages of 4 data points.
Where [2] appears, read: Table S2, C. elegans SS assay, 110 μM, 24 h, averages of 4 data points.

For the molecule `O=c1c(O[C@@H]2O[C@H](CO[C@@H]3O[C@H](CO)[C@@H](O)[C@H](O)[C@H]3O)[C@@H](O)[C@H](O)[C@H]2O)c(-c2ccc(O)cc2)oc2cc(O)cc(O)c12` [Kaempferol 3‐O‐gentiobioside], under setting [1], the “Percentage of motility inhibition 0 h” value is recorded as 0%. In addition, the “Percentage of motility inhibition 24 h” value under setting [2] was 12%.

Take `CC(=O)O.NCc1ccc(S(N)(=O)=O)cc1` [Mafenide (Acetate)]: the “Percentage of motility inhibition 0 h” value under setting [1] is 21%. Moreover, the “Percentage of motility inhibition 24 h” value under setting [2] came out at 10%.

Take Tubeimoside I: the “Percentage of motility inhibition 0 h” value under setting [1] was determined as 3%. In addition, the “Percentage of motility inhibition 24 h” value under setting [2] is recorded as 0%.

In the case of Harpagide, the “Percentage of motility inhibition 0 h” value under setting [1] stood at 9%. Also, the “Percentage of motility inhibition 24 h” value under setting [2] is on record as 13%.

Turning to `C=C1[C@H](CO)[C@@H](O)C[C@@H]1n1cnc2c(=O)[nH]c(N)nc21.O` [Entecavir (monohydrate)], the “Percentage of motility inhibition 0 h” value under setting [1] is listed as 18%. Moreover, the “Percentage of motility inhibition 24 h” value under setting [2] worked out at 3%.

Take `Cl.NCC(O)c1ccc(O)c(O)c1` (stereo not shown) [Norepinephrine (hydrochloride)]: the “Percentage of motility inhibition 0 h” value under setting [1] is 23% and 12%.

On to `CN1[C@@H](CC(=O)c2ccccc2)CCC[C@H]1C[C@H](O)c1ccccc1.Cl` [Lobeline (hydrochloride)], for which the “Percentage of motility inhibition 0 h” value under setting [1] came out at 26%. Further, under setting [2], the “Percentage of motility inhibition 24 h” value came to 30%.

For `CCC1=C[C@@H]2CN3CCc4c([nH]c5ccccc45)[C@@](C(=O)OC)(C2)[C@@H]13.O=C(O)C(O)C(O)C(=O)O` [Catharanthine (Tartrate)], for the setting “110 µM”, the “Percentage of motility inhibition 0 h” value turned out to be 0% and the “Percentage of motility inhibition 24 h” value was found to be 12%.

Consider `C[C@]1(O[C@H]2O[C@H](CO)[C@H](O)[C@H](O)[C@H]2O)C[C@@H](O)[C@@H]2C=CO[C@@H](O[C@@H]3O[C@H](CO)[C@@H](O)[C@H](O)[C@H]3O)[C@@H]21` [Rehmannioside C], for which, under setting [1], the “Percentage of motility inhibition 0 h” value came to 0%. The “Percentage of motility inhibition 24 h” value under setting [2] worked out at 8%.

Consider `S=C=Nc1ccc(N=C=S)cc1` [p‐Phenylene diisothiocyanate], for which the “Percentage of motility inhibition 0 h” value under setting [1] came to 2%. Further, the “Percentage of motility inhibition 24 h” value under setting [2] came to 9%.

Consider `C=C[C@]1(C)C[C@@H](OC(=O)CSC(C)(C)CNC(=O)[C@H](N)C(C)C)[C@]2(C)[C@H](C)CC[C@]3(CCC(=O)[C@H]32)[C@@H](C)[C@@H]1O.Cl` [Valnemulin (Hydrochloride)], for which the “Percentage of motility inhibition 0 h” value under setting [1] is given as 29%. Also, the “Percentage of motility inhibition 24 h” value under setting [2] stood at 12%.

For the molecule `Clc1ccc(CCC(Cn2ccnc2)Sc2c(Cl)cccc2Cl)cc1.O=[N+]([O-])O` (stereo not shown) [Butoconazole (nitrate)], the “Percentage of motility inhibition 0 h” value under setting [1] is 45%. Under setting [2], the “Percentage of motility inhibition 24 h” value is 46%.

For `O=Cc1ccc(O[C@@H]2O[C@H](CO)[C@@H](O)[C@@H](O)[C@H]2O)cc1` [Helicid], the “Percentage of motility inhibition 0 h” value under setting [1] came to 11%. The “Percentage of motility inhibition 24 h” value under setting [2] was found to be 4%.

For the molecule `CC1(C)[C@@H](O)CC[C@]2(C)[C@H]3CC=C4[C@@H]5C[C@@]6(C)C[C@H](OC6=O)[C@]5(C)CC[C@@]4(C)[C@]3(C)CC[C@@H]12` [Wilforlide A], under setting [1], the “Percentage of motility inhibition 0 h” value was 7%. Besides, the “Percentage of motility inhibition 24 h” value under setting [2] was 3%.

As to Benzalkonium chloride, the “Percentage of motility inhibition 0 h” value under setting [1] is 50%. For the same molecule, the “Percentage of motility inhibition 24 h” value under setting [2] came out at 58%.

For `C[C@H]1O[C@@H](O[C@@H]2CC[C@@]3(C)[C@@H](CC[C@]4(C)[C@@H]3C=C[C@]35OC[C@@]6(CCC(C)(C)C[C@H]63)[C@@H](O)C[C@]54C)[C@@]2(C)CO)[C@H](O)[C@@H](O)[C@H]1O` (stereo in doubt) [Prosaikogenin G], the “Percentage of motility inhibition 0 h” value under setting [1] is on record as 2%. Moreover, the “Percentage of motility inhibition 24 h” value under setting [2] is given as 34%.

`CC1=C[C@]23C(=O)[C@@H](C=C(COC(=O)c4ccccc4)[C@@H](O)[C@]2(O)[C@H]1OC(=O)c1ccccc1)[C@H]1[C@@H](C[C@H]3C)C1(C)C` [Ingenol 3,20-dibenzoate]: the “Percentage of motility inhibition 0 h” value under setting [1] stood at 0%. Besides, the “Percentage of motility inhibition 24 h” value under setting [2] is listed as 0%.

`COC[C@]12CN(C)C3[C@@H]4[C@H](OC)[C@H]1[C@@]3([C@@H](OC)C[C@H]2O)[C@]1(O)C[C@@]2(O)[C@H](OC(=O)c3ccccc3)[C@@H]1[C@]4(OC(C)=O)[C@@H](O)[C@@H]2OC` [Beiwutine]: the “Percentage of motility inhibition 24 h” value under setting [2] is 13% and 10%.

Regarding `CS/C=C/C(=O)NCCO[C@@H]1O[C@H](CO)[C@@H](O)[C@H](O)[C@H]1O` [Entadamide‐A‐β‐D‐glucopyranoside], under setting [1], the “Percentage of motility inhibition 0 h” value was found to be 24%. The “Percentage of motility inhibition 24 h” value under setting [2] was found to be 13%.

With `COc1ccc(-c2oc3c(CC=C(C)C)c(O[C@@H]4O[C@H](CO)[C@@H](O)[C@H](O)[C@H]4O)cc(O)c3c(=O)c2O[C@@H]2O[C@@H](C)[C@H](O)[C@@H](O)[C@H]2O[C@@H]2OC[C@@H](O)[C@H](O)[C@H]2O)cc1` [Epimedin B], the “Percentage of motility inhibition 0 h” value under setting [1] amounted to 15%. The “Percentage of motility inhibition 24 h” value under setting [2] is 32%.

In the case of `CC1CCC(C(C)C)C(O)C1` (racemic) [DL-Menthol], under setting [1], the “Percentage of motility inhibition 0 h” value stood at 27%. Further, under setting [2], the “Percentage of motility inhibition 24 h” value came to 0%.

For `C[C@@H]1O[C@@H](c2c(O)c([C@@H]3O[C@H](CO)[C@@H](O)[C@H](O)[C@H]3O)c(O)c3c(=O)cc(-c4ccc(O)cc4)oc23)[C@H](O)[C@H](O)[C@H]1O` [Violanthin], under setting [1], the “Percentage of motility inhibition 0 h” value turned out to be 0%. Besides, the “Percentage of motility inhibition 24 h” value under setting [2] turned out to be 19%.

Consider `Cl.NCCS` [Cysteamine (hydrochloride)], for which the “Percentage of motility inhibition 0 h” value under setting [1] worked out at 23%. Under setting [2], the “Percentage of motility inhibition 24 h” value amounted to 6%.

In the case of `CC(C)=CCC[C@](C)(O[C@@H]1O[C@H](CO)[C@@H](O)[C@H](O)[C@H]1O)[C@H]1CC[C@]2(C)[C@@H]1[C@H](O)C[C@@H]1[C@@]3(C)CC[C@H](O)C(C)(C)[C@@H]3CC[C@]12C` [Ginsenoside C-K], the “Percentage of motility inhibition 0 h” value under setting [1] was 4%. Further, the “Percentage of motility inhibition 24 h” value under setting [2] is 22%.

Consider `CCN1C[C@]2(C)CC[C@H](OC)C34C5C[C@@H]6CC[C@@](O)(C5C(=O)O6)C(C13)[C@@H](OC(=O)c1ccccc1)[C@@H]42` [6‐Benzoylheteratisine], for which the “Percentage of motility inhibition 0 h” value under setting [1] was 16%. Besides, under setting [2], the “Percentage of motility inhibition 24 h” value came out at 23%.

Regarding `CC[C@@]1(O)C(=O)OCc2c1cc1n(c2=O)Cc2cc3c(CN(C)C)c(O)ccc3nc2-1.Cl` [Topotecan (Hydrochloride)], under setting [1], the “Percentage of motility inhibition 0 h” value is reported as 5%. For the same molecule, under setting [2], the “Percentage of motility inhibition 24 h” value was determined as 3%.

In the case of `Nc1ccc2cc3ccc(N)cc3nc2c1.Nc1ccc2cc3ccc(N)cc3nc2c1.O=S(=O)(O)O` [Proflavine (hemisulfate)], the “Percentage of motility inhibition 0 h” value under setting [1] was found to be 7%. Moreover, the “Percentage of motility inhibition 24 h” value under setting [2] was 16%.

Consider `CC(C)C1=CC2C(CCC2(C)O)C(C)(O)CC1` (stereo not drawn) [1αH,5αH-Guaia-6-ene-4β,10β-diol], for which the “Percentage of motility inhibition 0 h” value under setting [1] is reported as 0%. Besides, the “Percentage of motility inhibition 24 h” value under setting [2] came to 27%.

`C[C@H](CC[C@@H](O[C@@H]1O[C@H](CO[C@@H]2O[C@H](CO)[C@@H](O)[C@H](O)[C@H]2O)[C@@H](O)[C@H](O)[C@H]1O[C@@H]1O[C@H](CO)[C@@H](O)[C@H](O)[C@H]1O)C(C)(C)O)[C@H]1CC[C@@]2(C)[C@@H]3CC=C4[C@@H](CC[C@H](O[C@@H]5O[C@H](CO[C@@H]6O[C@H](CO)[C@@H](O)[C@H](O)[C@H]6O)[C@@H](O)[C@H](O)[C@H]5O)C4(C)C)[C@]3(C)CC[C@]12C` [11-Deoxymogroside V]: the “Percentage of motility inhibition 0 h” value under setting [1] amounted to 0%. Also, the “Percentage of motility inhibition 24 h” value under setting [2] is listed as 10%.

As for `CC(=O)O[C@H]1C(=O)[C@@]2(C)[C@H]([C@H](OC(=O)c3ccccc3)[C@]3(O)C[C@H](OC(=O)[C@H](O)[C@@H](NC(=O)c4ccccc4)c4ccccc4)C(C)=C1C3(C)C)[C@]1(OC(C)=O)CO[C@@H]1C[C@@H]2O` [Paclitaxel], the “Percentage of motility inhibition 0 h” value under setting [1] was 18% and 29%. Moreover, the “Percentage of motility inhibition 24 h” value under setting [2] is 12% and 23%.

Regarding `CC(C)=CCC[C@@](C)(O)[C@H]1CC[C@]2(C)[C@@H]1[C@H](O)C[C@@H]1[C@@]3(C)CC[C@H](O)C(C)(C)[C@@H]3CC[C@]12C` [(20R)-Protopanaxadiol], under setting [1], the “Percentage of motility inhibition 0 h” value is reported as 0%. Besides, under setting [2], the “Percentage of motility inhibition 24 h” value is recorded as 43%.

As for `COc1cc(/C=C/C(=O)N2CCC=CC2=O)cc(OC)c1OC` [Piperlongumine], the “Percentage of motility inhibition 0 h” value under setting [1] was determined as 0%. The “Percentage of motility inhibition 24 h” value under setting [2] is on record as 0%.

Regarding `COC(=O)C1=CO[C@@H](C)[C@H]2CN3CC[C@]4(C(=O)Nc5ccccc54)[C@@H]3C[C@H]12` [Mitraphylline], the “Percentage of motility inhibition 0 h” value under setting [1] came to 0%. For the same molecule, under setting [2], the “Percentage of motility inhibition 24 h” value was determined as 21%.

On to `CN[C@H]1[C@H](O)[C@H](O[C@@H]2[C@@H](O)[C@H](O[C@H]3O[C@H](C(C)O)[C@@H](O)[C@H](O)[C@H]3N)[C@@H](N)C[C@H]2N)OC[C@@]1(C)O.O=S(=O)(O)O.O=S(=O)(O)O` (stereo partly shown) [G‐418 (disulfate)], for which the “Percentage of motility inhibition 0 h” value under setting [1] is 26%. The “Percentage of motility inhibition 24 h” value under setting [2] is on record as 11%.

With `O=c1cc(-c2ccc(O)cc2)oc2cccc(O)c12` [4',5‐Dihydroxyflavone], the “Percentage of motility inhibition 0 h” value under setting [1] is on record as 39%. Moreover, the “Percentage of motility inhibition 24 h” value under setting [2] was determined as 6%.

For `COC(=O)C1=CO[C@@H](C)[C@H]2CN3CCc4c([nH]c5ccccc45)[C@@H]3C[C@H]12` [Ajmalicine], under setting [1], the “Percentage of motility inhibition 0 h” value was 0%. In addition, the “Percentage of motility inhibition 24 h” value under setting [2] came to 1%.

For `C=C/C(C)=C/C=C/C(C)=C/C=C1/C(C)=CCCC1(C)C` [all-trans-Anhydro Retinol], the “Percentage of motility inhibition 0 h” value under setting [1] was 61%. The “Percentage of motility inhibition 24 h” value under setting [2] was 58%.

In the case of `Nc1nc(=O)c2c([nH]1)NCC(CNc1ccc(C(=O)N[C@@H](CCC(=O)O)C(=O)O)cc1)N2C=O` (mixture of isomers) [Folinic acid], the “Percentage of motility inhibition 0 h” value under setting [1] is 11%. For the same molecule, the “Percentage of motility inhibition 24 h” value under setting [2] was 20%.

In the case of `Cc1cc(O)c(C(=O)N[C@@H](C(=O)N[C@@H]2C(=O)N3C(C(=O)[O-])=C(CSc4nnnn4C)CS[C@H]23)c2ccc(O)cc2)cn1.[Na+]` [Cefpiramide (sodium)], under setting [1], the “Percentage of motility inhibition 0 h” value is on record as 0%. For the same molecule, under setting [2], the “Percentage of motility inhibition 24 h” value is given as 7%.

These data come from PMC11855827, “High-Throughput Screening of Five Compound Libraries for Anthelmintic Activity and Toxicity Leads to the Discovery of Two Flavonoid Compounds” (International Journal of Molecular Sciences, 2025).
